Results from patent publication US4826531A (priority 1986, dated 1989).

Columns and labels:
[1] = system: CERCOSPORA ARACHIDICOLA (PEANUT); experiment: foliar fungal disease control test (Table III); type: in vivo; settings: 100 ppm foliar spray plus root drench ca. 40 ppm a.i./dry soil; 1-2 days before inoculation
Experimental: (§1) The compounds were tested against a variety of foliar fungal diseases of plants. The technique employed was as follows.
(§2) The plants were grown in John Innes Potting Compost (No 1 or 2) in 4 cm diameter minipots. The test compounds were formulated either by bead milling with aqueous Dispersol T or as a solution in acetone or acetone/ethanol which was diluted to the required concentration immediately before use. For the foliage diseases, the formulations (100 ppm active ingredient) were sprayed on to the foliage and applied to the roots of the plants in the soil. The sprays were applied to maximum retention and the root drenches to a final concentration equivalent to approximately 40 ppm a.i./dry soil. Tween 20, to give a final concentration of 0.05%, was added when the sprays were applied to cereals.
(§3) For most of the tests the compound was applied to the soil (roots) and to the foliage (by spraying) one or two days before the plant was inoculated with the disease. An exception was the test on Erysiphe graminis in which the plants were inoculated 24 hours before treatment. Foliar pathogens were applied by spray as spore suspensions onto the leaves of test plants. After inoculation, the plants were put into an appropriate environment to allow infection to proceed and then incubated until the disease was ready for assessment. The period between inoculation and assessment varied from four to fourteen days according to the disease and environment.
(§4) The disease control was recorded by the following grading: […]

[2] = system: ERYSIPHE GRAMINIS (BARLEY); experiment: foliar fungal disease control test (Table III); type: in vivo; settings: 100 ppm foliar spray plus root drench ca. 40 ppm a.i./dry soil; inoculated 24 hours before treatment
Experimental: as §1, §2, §3, §4

[3] = system: PUCCINIA RECONDITA (WHEAT); experiment: foliar fungal disease control test (Table III); type: in vivo; settings: 100 ppm foliar spray plus root drench ca. 40 ppm a.i./dry soil; 1-2 days before inoculation
Experimental: as §1, §2, §3, §4

[4] = system: VENTURIA INAEQUALS (APPLE); experiment: foliar fungal disease control test (Table III); type: in vivo, Venturia inaequalis; settings: 100 ppm foliar spray plus root drench ca. 40 ppm a.i./dry soil; 1-2 days before inoculation
Experimental: as §1, §2, §3, §4

[…] (RICE) = type: in vivo, Pyricularia oryzae; settings: 100 ppm foliar spray plus root drench ca. 40 ppm a.i./dry soil; 1-2 days before inoculation
[…] (VINE) = foliar fungal disease control test (Table III); type: in vivo, Plasmopara viticola; settings: 100 ppm foliar spray plus root drench ca. 40 ppm a.i./dry soil; 1-2 days before inoculation
Experimental: as §1, §2, §3, §4

PH[…] (TOMATO) = type: in vivo, Phytophthora infestans; settings: for disease control grading, PH[…] (TOMATO): 100 ppm foliar spray plus root drench ca. 40 ppm a.i./dry soil, 1-2 days before inoculation
[5] = system: Meloidogyne incognita (tomato root-knot eelworm larvae); experiment: nematocidal activity
Tomato = experiment: whole plant screen for plant growth regulating activity; type: in vivo, Tomato (Ailsa Craig)
Experimental: (§5) These compounds were tested on a whole plant screen for plant growth regulating activity against six species of plant. The plant species used in this screen are presented in Table IV with the leaf stage at which they were sprayed.
(§6) A formulation of each chemical was applied at 4000 ppm (4 kg/ha in a 1000 l/ha field volume) using a tracksprayer and a SS8004E (Teejet) nozzle. Additional tests were done on tomatoes at 2000 and 500 ppm.
(§7) After spraying, the plants were grown in a glasshouse with 25° C. day/22° C. night temperatures. The exceptions to this were the temperate cereals wheat and barley, which were grown in 13°-16° C. day/11°-13° C. night temperatures. Supplementary lighting was supplied when necessary to provide an average photoperiod of 16 hours (14 hours minimum).
(§8) After 2-6 weeks in the glasshouse, depending on species and time of year, the plants were visually asessed for morphological characteristics against a control plant sprayed with a blank formulation.

[6] = system: Diabrotica balteata (root worm larvae); experiment: insecticidal activity
Barley = experiment: whole plant screen for plant growth regulating activity; type: in vivo, Barley (Atem); settings: 4000 ppm (4 kg/ha), assessed after 2-6 weeks
Experimental: as §5, §6, §7, §8

SMILES	disease control grading, CERCOSPORA ARACHIDICOLA (PEANUT) [1]	disease control grading, ERYSIPHE GRAMINIS (BARLEY) [2]	disease control grading, PUCCINIA RECONDITA (WHEAT) [3]	disease control grading, VENTURIA INAEQUALS (APPLE) [4]	disease control grading, […] (RICE) ([…] (RICE))	disease control grading, […] (VINE) ([…] (VINE))	disease control grading, PH[…] (TOMATO) (PH[…] (TOMATO))	disease control grading, PH[…] (TOMATO), root drench only (PH[…] (TOMATO); 100 ppm root drench only)	activity against Meloidogyne incognita [5]	plant growth regulating effect, TO (Tomato; 4000 ppm (4 kg/ha), assessed after 2-6 weeks)	plant growth regulating effect, TO+ (Tomato; 500 ppm)	activity against Diabrotica balteata [6]	plant growth regulating effect, BR (Barley)
CO/C=C(/C(=O)OC)c1ncccc1Oc1ccccc1 [Compound 1, (E)-methyl 2-(3'-phenoxypyrid-2'-yl)-3-methoxyacrylate]	4	3 (trace-5% of disease on untreated plants)	0 (60-100% of disease on untreated plants)	3 (trace-5% of disease on untreated plants)	0 (60-100% of disease on untreated plants)	0 (60-100% of disease on untreated plants)	0 (60-100% of disease on untreated plants)						
CO/C=C(/C(=O)OC)c1cccnc1Oc1ccccc1 [Compound 15, (E)-methyl-2-(2'-phenoxypyrid-3'-yl)-3-methoxyacrylate]	4	4	4	4	4	4		4	active				
CO/C=C(/C(=O)OC)c1cccnc1Oc1ccc(Cl)cc1 [Compound 16]	4	4	4	4	4	4	3 (trace-5% of disease on untreated plants)						
CO/C=C(/C(=O)OC)c1cccnc1Oc1ccc(Br)cc1 [Compound 18]	4	4	1 (26-59% of disease on untreated plants)	4	0 (60-100% of disease on untreated plants)	4	0 (60-100% of disease on untreated plants)						
CO/C=C(/C(=O)OC)c1cccnc1Oc1ccc(C)cc1 [Compound 19]	4	4	4	4	4	4	0 (60-100% of disease on untreated plants)			2GAT			
CO/C=C(/C(=O)OC)c1cccnc1Oc1ccc(OC)cc1 [Compound 20]	4	4	4	4	4	4	0 (60-100% of disease on untreated plants)						
CO/C=C(/C(=O)OC)c1cccnc1Oc1ccc(C(F)(F)F)cc1 [Compound 21]	4	4	4	4	0 (60-100% of disease on untreated plants)	4	3 (trace-5% of disease on untreated plants)						
CO/C=C(/C(=O)OC)c1cccnc1Oc1cccc(Cl)c1 [Compound 23]	4	4	4	4	4	4	4				2G	active	
CO/C=C(/C(=O)OC)c1ccncc1Oc1ccccc1 [Compound 43, (E)-methyl-2-(3'-phenoxypyrid-4'-yl)-3-methoxyacrylate]													2T
CO/C=C(/C(=O)OC)c1cccnc1Oc1cccc(F)c1 [Compound 57]	4	4	4	4	4	4	3 (trace-5% of disease on untreated plants)						
CO/C=C(/C(=O)OC)c1cccnc1Oc1cccc(C)c1 [Compound 58]	4	4	4	4	4	4	3 (trace-5% of disease on untreated plants)						
CO/C=C(/C(=O)OC)c1cccnc1Oc1cc(Cl)cc(Cl)c1 [Compound 60]	4	4	4	4	4	4	4						
CO/C=C(/C(=O)OC)c1cccnc1OCc1ccccc1 [Compound 66]	1 (26-59% of disease on untreated plants)	4	0 (60-100% of disease on untreated plants)	4	0 (60-100% of disease on untreated plants)	2 (6-25% of disease on untreated plants)	0 (60-100% of disease on untreated plants)						
CO/C=C(/C(=O)OC)c1cccnc1Oc1ccc(F)cc1F [Compound 87]	4	4	3 (trace-5% of disease on untreated plants)	4	4	0 (60-100% of disease on untreated plants)	0 (60-100% of disease on untreated plants)						
CO/C=C(/C(=O)OC)c1cccnc1Oc1cc(F)cc(F)c1 [Compound 88]	3 (trace-5% of disease on untreated plants)	4	4	4	2 (6-25% of disease on untreated plants)	4	4						
CO/C=C(/C(=O)OC)c1ccccn1 [Compound 106]	0 (60-100% of disease on untreated plants)	4	0 (60-100% of disease on untreated plants)	0 (60-100% of disease on untreated plants)	0 (60-100% of disease on untreated plants)	0 (60-100% of disease on untreated plants)							
